The target of this experiment is T1, Estrogen Receptor (ERα) in MCF-7 human ductal carcinoma breast cell line (Homo sapiens, UniProt P03372).
T1 construct: endogenous in cells; host or cells: MCF-7
T1 sequence (P03372 1-595): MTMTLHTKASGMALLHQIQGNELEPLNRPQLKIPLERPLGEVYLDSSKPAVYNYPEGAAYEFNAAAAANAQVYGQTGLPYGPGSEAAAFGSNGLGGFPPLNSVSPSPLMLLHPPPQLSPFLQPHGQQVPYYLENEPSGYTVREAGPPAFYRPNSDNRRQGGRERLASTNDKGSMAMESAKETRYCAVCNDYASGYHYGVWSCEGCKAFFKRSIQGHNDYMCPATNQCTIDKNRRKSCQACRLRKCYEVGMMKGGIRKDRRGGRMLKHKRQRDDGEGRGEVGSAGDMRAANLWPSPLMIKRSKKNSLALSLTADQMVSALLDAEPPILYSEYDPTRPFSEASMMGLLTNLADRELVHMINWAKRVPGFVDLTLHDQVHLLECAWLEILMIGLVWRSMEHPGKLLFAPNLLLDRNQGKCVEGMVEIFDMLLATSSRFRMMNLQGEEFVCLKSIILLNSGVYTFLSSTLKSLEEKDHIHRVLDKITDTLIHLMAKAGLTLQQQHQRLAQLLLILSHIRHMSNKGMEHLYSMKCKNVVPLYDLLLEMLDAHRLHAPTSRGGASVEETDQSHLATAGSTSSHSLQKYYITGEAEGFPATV
Briefly: MCF-7 ER degradation assay (cell based immuno-fluorescence). To be noted: MCF-7 cells; for ER degradation ≥ 90% at 0.3 μM: ER degradation by fulvestrant at 0.3 μM is defined as 100%; for DC50: 18-22 hours incubation, 50% reduction of ERα expression, single experiment or average of two or more, read-out: MCF-7 ER degradation IC50. The gist of the method:
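MCF-7 human ductal carcinoma breast cells were seeded at 3.75×10^4 cells per mL (40 μL per well) in 384 well plates with phenol red free DMEM containing 2 mM L-Glutamine and 5% (v/v) Charcoal/Dextran treated foetal calf serum. After overnight culture, compounds were acoustically dispensed, incubated 18-22 hours, then cells were formaldehyde-fixed and immunostained for ERα.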

Consider `Cc1ncsc1-c1ccc(CNC(=O)[C@@H]2C[C@@H](O)CN2C(=O)[C@@H](NC(=O)COCCOCCOCCNC(=O)/C=C/c2cc(F)c([C@@H]3c4[nH]c5ccccc5c4C[C@@H](C)N3CC(C)(C)F)c(F)c2)C(C)(C)C)cc1` [Example 63, (2S,4R)-1-((S,E)-2-(tert-butyl)-18-(3,5-difluoro-4-((1R,3R)-2-(2-fluoro-2-methylpropyl)-3-methyl-2,3,4,9-tetrahydro-1H-pyrido[3,4-b]indol-1-yl)phenyl)-4,16-dioxo-6,9,12-trioxa-3,15-diazaoctadec-17-enoyl)-4-hydroxy-N-(4-(4-methylthiazol-5-yl)benzyl)pyrrolidine-2-carboxamide, Trifluoroacetic Acid], for which the “ER degradation ≥ 90% at 0.3 μM” value is “••” and the DC50 came out at 0.6 nM.
The matching figures for `Cc1ncsc1-c1ccc(CNC(=O)[C@@H]2C[C@@H](O)CN2C(=O)[C@@H](NC(=O)COCCNC(=O)/C=C/c2cc(F)c([C@@H]3c4[nH]c5ccccc5c4C[C@@H](C)N3CC(C)(C)F)c(F)c2)C(C)(C)C)cc1` [Example 62, (2S,4R)-1-((S)-2-(2-(2-((E)-3-(3,5-difluoro-4-((1R,3R)-2-(2-fluoro-2-methylpropyl)-3-methyl-2,3,4,9-tetrahydro-1H-pyrido[3,4-b]indol-1-yl)phenyl)acrylamido)ethoxy)acetamido)-3,3-dimethylbutanoyl)-4-hydroxy-N-(4-(4-methylthiazol-5-yl)benzyl)pyrrolidine-2-carboxamide, Trifluoroacetic Acid]: “•” and 0.6 nM.

The values are drawn from patent US10519152B2, “Compounds and their use in treating cancer” (AstraZeneca AB, priority 2017, dated 2019).
